Where “and” joins values, the source holds several entries; their conditions need not be identical. Identical values can stand only once.
What was measured:
[1] = tested on: mononuclear cells (MNC) derived from umbilical cord blood (UCB); test: Membrane integrity (SYBR14/PI live/dead stain) of UCB derived MNC after freeze thawing or freeze drying; format: cell-based, human; conditions: for Membrane integrity (%): 0.1M trehalose in PBS
Description: In the following experiments umbilical cord blood (UCB) was received from “Sheba” Medical Center. The blood was separated on ficoll-paque gradient. 3 ml of Histopaque 1077 was put in a 15 ml plastic test tube. Above it 3 ml of UCB was put and the samples were centrifuged for 30 minutes at 1000 g. After spinning was finished the mononuclear layer was taken out and PBS was added up to 10 ml total volume. The samples were centrifuged again for 10 minutes at 200 g or 250 g., after which, the supernatant was discarded and another step of washing was performed (again, 10 ml PBS was added and samples were centrifuged for 10 minutes at 250 g). At the end of this step a freezing solution (as detailed in each experiment) was added to the cells pellet. The volume of the freezing solution varied depending on the desired cell concentration (concentrations may range for example from 1 to 10×10^6 cells/ml) or volume. Unless otherwise mentioned, a 2.5 ml cell suspension was transferred into a 16 mm glass tube that was then frozen using a multi-gradient directional freezing system (MTG-516 by IMT, Israel), operated essentially as described in WO03/020874.
Unless otherwise stated, the directional freezing system temperatures were set to: 5° C. to −10° C. to −40° C. to −70° C. Seeding was performed before the samples entered the −10° C. temperature. The velocity at which the samples were pushed through the channels of the freezing machine was set to 0.2 mm/sec, resulting in a cooling rate of 5.1° C./min. During freezing the samples were rotated at 60 rounds per minute (RPM). After completion of the freezing process, samples were put in a liquid-nitrogen (LN) tank until they were either thawed or transferred into a lyophilizer.
Lyophilization was performed by taking samples out of the LN tank and putting them in a commercial lyophilizer near the condenser (Labconco, USA), at condenser temperature of −80° C. Samples were held in the lyophilizer for 3 days. After 3 days of lyophilization samples were taken out and rehydrated with 2.4 ml of double distilled water (DDW) at 37° C.
Viability was assessed using the live/dead fluorescent stain SYBR14/PI (Propidium Iodide) or SYTO/PI (both from Molecular Probes, USA) for membrane integrity. These stains are nucleic acid stains, SYBR14 and SYTO are membrane permeable molecules and PI can enter the cell only if the membrane is damaged. Where so specified, the assay used was trypan blue (TB).

[2] = tested on: UCB derived MNC (mature lymphocytes, CD3); test: CD3 expression by FACS after lyophilization and re-hydration; format: cell-based, human; conditions: 0.1M trehalose
Description: Sample's volume was 2.5 ml and samples were frozen and then lyophilized as described above. After being in the lyophilizer for 72 h, the samples were taken out and re-hydrated with 2.4 ml of DDW at 37° C. After re-hydration samples were assayed for CD3 using FACS (fluorescent-activated cell sorter) in accordance with the method described in Hulling et al. The Journal of Immunology 2003, 171: 4824-4829.

UCB derived MNC = test: Cell proliferation assay based on thymidine incorporation; parameters: species or system human; conditions: cells lyophilized at ×10 EGCG (1.89 mg/ml) compared with ×2.5 EGCG (0.47 mg/ml); 48 hour incubation; FIG. 3
Description: Sample's volume was 2.5 ml and samples were frozen and then lyophilized as described above. After being in the lyophilizer for 72 h, the samples were taken out and re-hydrated with 2.4 ml of DDW at 37° C. After re-hydration samples were assayed for CD3 using FACS (fluorescent-activated cell sorter) in accordance with the method described in Hulling et al. The Journal of Immunology 2003, 171: 4824-4829. In addition, a cell proliferation assay was performed. In brief, the hydrated cells were incubated for 48 hour after which a proliferation assay based on thymidine incorporation was carried out (Promega, USA). The results of the proliferation assay are depicted in FIG. 3, wherein the proliferation index of the cells is depicted as a function of their number at initial plating.

macrophages = test: Membrane integrity (SYBR14/PI) of macrophage units after freeze thawing and freeze drying; format: cell-based; conditions: for cell survival (membrane integrity): freeze-dried, 0.5M Trehalose
From the text: Macrophage units were supplied by Professor Danon, Israel blood services, Tel-Hashomer, Israel. In the following experiments all buffy coats and/or macrophage units referred to were manipulated using the method and system for cultivating macrophages described in U.S. Pat. No. 6,146,890 which is incorporated herein by reference in its entirety, whereby hypo-osmotic shock is used to enhance the cells' differentiation into macrophages. Such manipulated cells were reported not to maintain viability after a conventional freezing process therefore their shelf life is very short, limiting their applications.
A part of the buffy coat was separated in order to produce mononuclear cells which include the monocyte/macrophage layer. The blood was separated on a Ficoll-Paque gradient for 30 minutes at 1000 g, afterwards the mononuclear layer was drawn out and washed twice in Phosphate Buffered Saline (PBS) (Calcium and Magnesium free, Bet Haemek, Israel) for 10 minutes at 200 g. The pellet was then resuspended with 3 ml of culture medium (RPMI 1640 with glutamine, 10% fetal calf serum and 1% antibiotic, all supplied by Bet Haemek, Israel). The rest of the buffy coat was left untouched.
Whole buffy coat or mononuclear cells in culture medium were incubated for one hour with different concentrations of Trehalose (0.1, 0.3, 0.5 and 1M). Incubation was done at 37° C., 5% CO2 humidified incubator.
Buffy coat samples and MNC samples were frozen by using the MTG-516 freezing apparatus (IMT, Israel) at a cooling rate of 5.1° C./min. Samples were rotated during freezing at 56 rounds per minute. After freezing, all samples were plunged into liquid nitrogen. Thawing was done at 37° C. in a water bath. Lyophilization was done by putting the frozen samples in a commercial lyophilizer (Labconco, USA) with a condenser temperature of −80° C. After drying, the cells were rehydrated with ultra pure water at 37° C. in order to regain their original volume (2.5 ml). […]

`O=C(O[C@@H]1Cc2c(O)cc(O)cc2O[C@@H]1c1cc(O)c(O)c(O)c1)c1cc(O)c(O)c(O)c1` [EGCG, Epigallocatechin gallate] was tested, and the membrane integrity ([1]; 0.1M trehalose with 0.945 or 1.89 mg/ml EGCG, lyophilized and rehydrated, FIG. 2B) was “very high”, the “viability (EGCG dose response)” value ([1]; 0.4M Trehalose, 0.189, 0.47, 0.945 and 1.89 mg/ml EGCG, after freezing and thawing and after freeze drying and re-hydration (exception 0.945 mg/ml after freeze-drying)) was “increased with increasing EGCG concentration” and the “Membrane integrity (%)” value ([1]; Fresh with 0.47 mg/ml EGCG) was 97.36 ± 2.2%. For the same compound, the “Membrane integrity (%)” value ([1]; Lyophilized with 0.47 mg/ml EGCG, re-hydrated) was 55.1 ± 8.5% and 59.8 ± 1.4%, the “percentage of cells that presented an intact membrane” value ([1]; after freeze drying with 1.89 mg/ml EGCG, 0.4M Trehalose in PBS, FIG. 2A) was “about 90%” and the “CD3 (%)” value ([2]; Lyophilized with 0.47 mg/ml EGCG) was 80%. For the same compound, the “CD3 (%)” value ([2]; Lyophilized with 1.89 mg/ml EGCG) was 81% and 83% and 82% and 78% and the proliferation index (UCB derived MNC) was “higher proliferation index”.

With `OC[C@H]1O[C@H](O[C@H]2O[C@H](CO)[C@@H](O)[C@H](O)[C@H]2O)[C@H](O)[C@@H](O)[C@@H]1O` [trehalose, Trehalose] the “cell survival (membrane integrity)” value (macrophages; second experiment, FIG. 6C) was 55.35±2.9%, the “cell survival (membrane integrity)” value (macrophages; without Ficoll-Paque separation, FIG. 6B) was 91.86±4.2% and the membrane integrity (macrophages; frozen-thawed with 0.5M trehalose, whole macrophage units, FIG. 6C) was 72.03±2.8%.

From patent publication US8198085B2, “Somatic cells for use in cell therapy” (Core Dynamics Limited, priority 2005, dated 2012)
